This is an account of results in publication PMC8111447 (Frontiers in Pharmacology, 2021).

One assay addresses EGFR^L861Q (Homo sapiens, UniProt P00533, L861Q). Description: EGFR kinase inhibition assay (HTRF). Type of assay: biochemical. As to conditions: 30 μmol/L ATP, no pre-incubation, n = 3. On the procedure:
(§1) The sequence of the substrate is proprietary to CisBio. […] Kinase activity assays were performed in a total reaction volume of 3 μl per well. […] The substrate mixture (1.5 μl) consisted of 1 μmol/L TK substrate, 30 μmol/L ATP, 1 mmol/L DTT, and 10 mmol/L MgCl2. […] The plates were incubated for 1 h before being read on Pherastar using standard HTRF settings. […] There was no pre-incubation of the test compounds with the enzyme/substrate mixture prior to ATP addition. For IC50 calculation, data were analyzed using XLFit version 5.3.
In general terms: Time-resolved FRET reads energy transfer from a long-lived donor to a nearby acceptor.

For the next assay, the target named is EGFR^L858R (Homo sapiens, UniProt P00533, L858R). Description: EGFR kinase inhibition assay (HTRF). To be noted: 30 μmol/L ATP, no pre-incubation, n = 3. Type of assay: biochemical. As for the experimental part:
as §1

The target in another assay is EGFR^d746–750 (Homo sapiens, UniProt P00533, DEL746-750). Put plainly: EGFR kinase inhibition assay (HTRF). Type of assay: biochemical. To be noted: 30 μmol/L ATP, no pre-incubation, n = 3. As for the experimental part:
as §1

The target in another assay is EGFR^WT (Homo sapiens, UniProt P00533). Description: EGFR kinase inhibition assay (HTRF). The class given is biochemical. To be noted: 30 μmol/L ATP, no pre-incubation, n = 3. As for the experimental part: as §1
Chain of EGFR^WT (P00533 25-1210): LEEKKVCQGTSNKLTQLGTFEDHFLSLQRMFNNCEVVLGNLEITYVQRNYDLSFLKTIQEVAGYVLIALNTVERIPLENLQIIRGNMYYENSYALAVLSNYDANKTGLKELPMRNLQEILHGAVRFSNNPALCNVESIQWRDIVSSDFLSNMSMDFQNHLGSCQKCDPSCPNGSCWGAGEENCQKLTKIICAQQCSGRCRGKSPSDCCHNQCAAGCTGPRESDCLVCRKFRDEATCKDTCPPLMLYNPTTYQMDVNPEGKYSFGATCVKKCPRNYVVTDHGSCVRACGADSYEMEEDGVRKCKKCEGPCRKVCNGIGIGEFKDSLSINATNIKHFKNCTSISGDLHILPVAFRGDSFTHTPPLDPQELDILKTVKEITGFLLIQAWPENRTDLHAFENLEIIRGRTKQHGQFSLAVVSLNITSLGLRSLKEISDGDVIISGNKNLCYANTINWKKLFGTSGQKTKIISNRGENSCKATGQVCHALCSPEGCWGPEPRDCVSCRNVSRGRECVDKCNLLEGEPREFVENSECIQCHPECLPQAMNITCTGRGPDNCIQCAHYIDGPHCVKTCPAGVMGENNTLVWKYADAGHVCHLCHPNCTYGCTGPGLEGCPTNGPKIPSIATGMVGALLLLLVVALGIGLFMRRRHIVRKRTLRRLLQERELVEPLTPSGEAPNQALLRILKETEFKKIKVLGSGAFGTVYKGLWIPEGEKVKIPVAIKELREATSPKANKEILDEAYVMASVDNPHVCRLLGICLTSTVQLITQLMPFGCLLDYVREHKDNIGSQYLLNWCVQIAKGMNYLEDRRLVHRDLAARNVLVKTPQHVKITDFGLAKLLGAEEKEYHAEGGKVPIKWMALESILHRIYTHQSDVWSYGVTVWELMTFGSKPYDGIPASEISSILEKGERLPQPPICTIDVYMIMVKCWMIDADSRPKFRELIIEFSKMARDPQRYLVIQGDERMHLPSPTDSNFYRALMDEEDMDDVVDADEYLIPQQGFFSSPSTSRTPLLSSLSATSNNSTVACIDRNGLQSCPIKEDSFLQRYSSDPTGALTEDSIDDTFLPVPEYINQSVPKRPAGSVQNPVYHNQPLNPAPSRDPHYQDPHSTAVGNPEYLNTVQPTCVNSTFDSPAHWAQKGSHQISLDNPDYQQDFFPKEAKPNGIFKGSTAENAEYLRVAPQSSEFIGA
A further assay has as its target T1, EGFR^L858R/T790M (Homo sapiens, UniProt P00533, L858R/T790M).
T1 construct: with amino acids 696-end containing the mutations T790M and L858R; GST (N); purchased Millipore
Put plainly: EGFR kinase inhibition assay (HTRF). As to conditions: 30 μmol/L ATP, no pre-incubation, n = 3. Type of assay: biochemical. On the procedure:
as §1

The target of the next assay is EGFR^d746–750/T790M (Homo sapiens, UniProt P00533, DEL746-750/T790M). Put plainly: EGFR kinase inhibition assay (HTRF). The class given is biochemical. As to conditions: 30 μmol/L ATP, no pre-incubation, n = 3. On the procedure:
as §1

The subject of a further assay is PC-9 (EGFR^d746–750). Description: Cell proliferation assay (CTG, 72 h). Type of assay: cell-based, human. As to conditions: for IC50: Homo sapiens, PC-9 cells, 72 h, mean ± SD, n = 3. On the procedure:
(§2) Human lung cancer cell lines (NCI-H1975, H3255 and A431) were obtained from the American Type Culture Collection (ATCC), while PC-9 cell line was supplied by the European Collection of Authenticated Cell Cultures (ECACC). For in vivo implantation, NCI-H1975, H3255 and PC-9 cells were cultured in RPMI1640 (Invitrogen) supplemented with 10% v/v fetal calf serum (Sigma-Aldrich) and 2 mmol/L L-glutamine (Invitrogen). A431 cells were cultured in DMEM (Invitrogen) supplemented with 10% v/v fetal calf serum and 2 mmol/L v/v L-glutamine. All cell lines were then cultured in a humidified incubator with 5% CO2 at 37°C.
(§3) Test compounds were dissolved in DMSO as a 10 mmol/L stock solution. The initial concentration of compounds were 10 μmol/L and the 3-fold dilution was nine times. […] Plate was shaked for 2 min and the mixture was incubated at room temperature for 10 min.
(§4) The half-maximal inhibition concentration (IC50) values were processed by GraphPad Prism7 (GraphPad Software; La Jolla, CA).

In the next assay the test system is H3255 (EGFR^L858R). Description: Cell proliferation assay (CTG, 72 h). To be noted: for IC50: Homo sapiens, NCI-H3255, H3255 cells, 72 h, mean ± SD, n = 3. Type of assay: cell-based, human. On the procedure: as §2, §3, §4
Assay [1] deals with EGFR phosphorylation in PC-9 cells. Put plainly: Phosphorylation of EGFR assay after wash-out. The class given is cell-based, human. To be noted: 0.1 μmol/L for 2 h, then washed out. On the procedure: (§5) Cells (NCI-H1975/PC-9/[…]) were seeded into a 384-well plate (10,000 cells/well), grown for 24 h, and then treated with 0.1 μmol/L of test compounds for 2 h. Cells were washed with fresh medium once. Then, 50 μl of medium was added in each well and the plate was cultured in an incubator for 0, 1, 2, 6 and 24 h. Cells were washed with ice-cold Hanks Balanced Salt Solution (HBSS) before extraction with 25 μl cell lysis buffer. The phosphorylation levels of EGFR were measured as described above.

The test system of assay [2] is EGFR phosphorylation in NCI-H1975 cells. Description: Phosphorylation of EGFR assay after wash-out. Type of assay: cell-based, human. As to conditions: 0.1 μmol/L for 2 h, then washed out. As for the experimental part: as §5
A further assay concerns A431 (EGFR^WT). Put plainly: Cell proliferation assay (CTG, 72 h). Type of assay: cell-based. As to conditions: Homo sapiens, A-431, A431 cells, mean ± SD, n = 3. On the procedure: as §2, §3, §4
Assay [3] relates to NCI-H1975 (EGFR^L858R/T790M). Description: Cell proliferation assay (CTG, 72 h). As to conditions: Homo sapiens, NCI-H1975 cells, mean ± SD, n = 3. The class given is cell-based. On the procedure:
as §2, §3, §4

Chain of EGFR^L858R (P00533 25-1210 L858R): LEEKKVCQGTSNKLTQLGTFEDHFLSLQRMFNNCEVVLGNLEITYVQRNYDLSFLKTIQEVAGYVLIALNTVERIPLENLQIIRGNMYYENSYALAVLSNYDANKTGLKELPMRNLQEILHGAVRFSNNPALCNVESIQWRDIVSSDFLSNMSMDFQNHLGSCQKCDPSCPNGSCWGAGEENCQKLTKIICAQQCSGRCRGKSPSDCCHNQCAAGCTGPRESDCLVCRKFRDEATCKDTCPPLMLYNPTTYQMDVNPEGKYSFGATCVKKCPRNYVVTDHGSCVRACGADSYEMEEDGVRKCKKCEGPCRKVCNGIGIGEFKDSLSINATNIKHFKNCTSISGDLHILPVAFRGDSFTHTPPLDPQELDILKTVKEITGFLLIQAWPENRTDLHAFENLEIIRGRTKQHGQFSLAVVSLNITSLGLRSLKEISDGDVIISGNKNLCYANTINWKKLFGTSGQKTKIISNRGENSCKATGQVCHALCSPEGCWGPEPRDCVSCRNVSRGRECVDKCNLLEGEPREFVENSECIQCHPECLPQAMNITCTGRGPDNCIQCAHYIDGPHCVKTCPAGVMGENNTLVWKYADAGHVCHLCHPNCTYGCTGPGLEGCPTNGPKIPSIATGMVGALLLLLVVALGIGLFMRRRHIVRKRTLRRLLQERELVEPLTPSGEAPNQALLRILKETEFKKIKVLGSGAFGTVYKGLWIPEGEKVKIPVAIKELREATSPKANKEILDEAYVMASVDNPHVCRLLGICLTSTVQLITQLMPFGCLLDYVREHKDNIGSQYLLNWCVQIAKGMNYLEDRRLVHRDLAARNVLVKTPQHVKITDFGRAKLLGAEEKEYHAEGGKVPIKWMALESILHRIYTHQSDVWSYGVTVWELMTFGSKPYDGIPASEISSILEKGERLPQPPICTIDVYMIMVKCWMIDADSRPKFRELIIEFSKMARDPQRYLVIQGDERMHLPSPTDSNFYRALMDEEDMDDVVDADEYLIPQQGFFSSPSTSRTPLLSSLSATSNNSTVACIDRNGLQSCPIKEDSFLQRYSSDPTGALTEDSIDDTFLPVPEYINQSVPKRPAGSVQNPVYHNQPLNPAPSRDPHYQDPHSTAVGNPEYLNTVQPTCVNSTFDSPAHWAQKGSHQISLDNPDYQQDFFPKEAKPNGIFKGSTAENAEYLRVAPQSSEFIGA
Chain of EGFR^d746–750/T790M (P00533 with tags, fused parts or gaps DEL746-750/T790M): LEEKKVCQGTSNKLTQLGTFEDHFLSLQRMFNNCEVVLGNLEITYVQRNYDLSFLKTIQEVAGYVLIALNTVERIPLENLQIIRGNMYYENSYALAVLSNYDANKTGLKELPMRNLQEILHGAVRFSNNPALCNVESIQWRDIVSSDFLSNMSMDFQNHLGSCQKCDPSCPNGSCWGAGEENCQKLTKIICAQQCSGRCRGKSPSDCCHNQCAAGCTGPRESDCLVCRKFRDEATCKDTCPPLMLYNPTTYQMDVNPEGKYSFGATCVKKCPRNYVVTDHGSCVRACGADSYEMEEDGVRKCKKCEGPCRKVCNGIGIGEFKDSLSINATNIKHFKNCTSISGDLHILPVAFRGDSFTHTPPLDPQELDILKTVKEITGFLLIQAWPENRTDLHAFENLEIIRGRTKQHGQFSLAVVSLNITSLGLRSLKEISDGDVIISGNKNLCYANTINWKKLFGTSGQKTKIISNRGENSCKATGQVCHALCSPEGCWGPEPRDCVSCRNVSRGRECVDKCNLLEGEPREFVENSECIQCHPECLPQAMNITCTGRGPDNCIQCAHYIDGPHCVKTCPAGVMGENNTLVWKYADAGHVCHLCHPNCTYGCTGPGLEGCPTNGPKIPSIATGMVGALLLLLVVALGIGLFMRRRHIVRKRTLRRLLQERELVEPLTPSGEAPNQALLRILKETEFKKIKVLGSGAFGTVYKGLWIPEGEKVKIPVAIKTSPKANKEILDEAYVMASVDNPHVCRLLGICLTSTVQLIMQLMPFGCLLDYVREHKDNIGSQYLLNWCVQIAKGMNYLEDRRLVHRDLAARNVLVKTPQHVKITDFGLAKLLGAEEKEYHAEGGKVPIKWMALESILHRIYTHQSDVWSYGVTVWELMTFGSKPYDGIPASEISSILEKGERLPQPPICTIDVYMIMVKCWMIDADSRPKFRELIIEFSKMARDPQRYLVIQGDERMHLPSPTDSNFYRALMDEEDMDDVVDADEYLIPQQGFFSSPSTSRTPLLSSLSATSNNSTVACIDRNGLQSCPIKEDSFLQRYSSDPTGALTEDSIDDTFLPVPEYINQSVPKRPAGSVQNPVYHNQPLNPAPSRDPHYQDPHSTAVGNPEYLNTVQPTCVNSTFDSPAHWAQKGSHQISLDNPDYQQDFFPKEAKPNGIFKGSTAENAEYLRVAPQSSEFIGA
Chain of EGFR^L861Q (P00533 25-1210 L861Q): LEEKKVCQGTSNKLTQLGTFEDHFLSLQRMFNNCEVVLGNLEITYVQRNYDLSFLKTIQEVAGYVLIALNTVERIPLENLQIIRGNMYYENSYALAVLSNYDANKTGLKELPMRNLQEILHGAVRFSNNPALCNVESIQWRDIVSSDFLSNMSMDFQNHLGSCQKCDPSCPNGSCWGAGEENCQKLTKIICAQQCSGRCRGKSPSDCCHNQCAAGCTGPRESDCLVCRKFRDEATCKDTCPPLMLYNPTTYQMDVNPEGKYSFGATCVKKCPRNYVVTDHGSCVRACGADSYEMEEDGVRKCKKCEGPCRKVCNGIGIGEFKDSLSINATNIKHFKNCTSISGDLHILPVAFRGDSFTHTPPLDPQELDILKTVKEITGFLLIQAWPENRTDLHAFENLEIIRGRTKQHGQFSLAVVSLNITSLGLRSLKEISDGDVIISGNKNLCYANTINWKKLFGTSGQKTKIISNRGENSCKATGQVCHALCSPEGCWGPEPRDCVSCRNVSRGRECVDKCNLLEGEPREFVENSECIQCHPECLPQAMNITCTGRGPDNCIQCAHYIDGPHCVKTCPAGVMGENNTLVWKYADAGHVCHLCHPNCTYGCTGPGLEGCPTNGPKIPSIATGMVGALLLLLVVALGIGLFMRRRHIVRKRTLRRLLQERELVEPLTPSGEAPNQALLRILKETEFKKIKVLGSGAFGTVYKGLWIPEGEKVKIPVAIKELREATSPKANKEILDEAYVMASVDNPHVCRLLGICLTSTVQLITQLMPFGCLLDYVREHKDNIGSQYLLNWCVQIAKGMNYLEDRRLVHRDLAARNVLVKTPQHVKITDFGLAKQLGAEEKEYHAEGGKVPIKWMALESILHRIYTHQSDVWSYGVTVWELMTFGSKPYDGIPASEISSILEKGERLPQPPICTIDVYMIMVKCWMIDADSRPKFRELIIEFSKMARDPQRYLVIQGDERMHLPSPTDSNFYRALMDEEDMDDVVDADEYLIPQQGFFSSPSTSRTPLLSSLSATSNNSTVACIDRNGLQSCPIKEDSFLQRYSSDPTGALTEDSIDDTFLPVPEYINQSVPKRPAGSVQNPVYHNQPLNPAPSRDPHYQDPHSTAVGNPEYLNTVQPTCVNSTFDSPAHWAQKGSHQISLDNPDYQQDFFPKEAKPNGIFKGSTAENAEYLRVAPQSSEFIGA

Consider `C=CC(=O)Nc1cc(Nc2nccc(-c3c4n(c5ccccc35)CCCC4)n2)c(OC)cc1N(C)CCN(C)C` [SH-1028], for which the IC50 – broadly, the concentration that inhibits the measured activity by half – on EGFR^L861Q was 4 nM; against EGFR^L858R, 0.7 nM; against EGFR^d746–750, 1.4 nM; against EGFR^WT, 18 nM; at EGFR^L858R/T790M, 0.1 nM; against EGFR^d746–750/T790M it was 0.89 nM. For the same compound, the IC50 in the assay with PC-9 (EGFR^d746–750) is 7.63 ± 0.18 nM; in the assay with H3255 (EGFR^L858R), 9.39 ± 0.88 nM; in the assay with A431 (EGFR^WT) it was 779 ± 135 nM; in assay [3], 3.93 ± 1.12 nM. Further, the “fold more sensitive than the inhibition of wild-type EGFR in A431 cells” value in the assay with PC-9 (EGFR^d746–750) (PC-9 vs A431, proliferation IC50) was roughly 102 fold; in the assay on H3255 (EGFR^L858R) (H3255 vs A431, proliferation IC50) it was roughly 83 fold. The “duration of continued inhibition of EGFR phosphorylation after wash-out” value in assay [1] and in assay [2] was “at least 6 h” each time.

`C=CC(=O)Nc1cc(Nc2nccc(-c3c4n(c5ccccc35)CCCC4)n2)c(OC)cc1N(C)CCNC` [Imp3]: the IC50 was 32 nM at EGFR^L861Q; 6 nM against EGFR^L858R; 1.7 nM against EGFR^d746–750; 144 nM on EGFR^WT; 1 nM against EGFR^L858R/T790M; 1.1 nM against EGFR^d746–750/T790M. Besides, the IC50 with PC-9 (EGFR^d746–750) came out at 15 ± 0.65 nM; with H3255 (EGFR^L858R), 17.1 ± 0.55 nM; in the assay on A431 (EGFR^WT), 704 ± 92.5 nM; in [3], 6.56 ± 1.43 nM. The “duration of continued inhibition of EGFR phosphorylation after wash-out” value in assay [1] and in assay [2] was “at least 6 h” in each case.
